Test results taken from US9765049B2, “N-cycloalkyl-N-[(fusedphenyl)methylene]-(thio)carboxamide derivatives” (BAYER CROPSCIENCE AG, priority 2013, dated 2017).
Read-outs that look alike come from different tables or passages of the source.

Key:
[1] = tested on: Fusarium nivale (var. majus); experiment: Efficacy against Fusarium nivale (var. majus) (wheat), curative test; type: in vivo; settings: evaluated 5 days after inoculation
Description: Example I: Efficacy Against Fusarium nivale (Var. Majus) (Wheat) [table] To produce a suitable preparation of active compound, 1 part by weight of active compound or active compound combination is mixed with the stated amounts of solvent and emulsifier, and the concentrate is diluted with water to the desired concentration. […] After the spray coating has dried on, the plants remain in a greenhouse under translucent incubation cloches at a temperature of approximately 10° C. and a relative atmospheric humidity of approximately 100%.

Botrytis cinerea = experiment: In vivo preventive test Botrytis cinerea (grey mould); settings: gherkin plants
Description: (§1) Example B: In Vivo Preventive Test Botrytis cinerea (Grey Mould) [table] The active ingredients are made soluble and homogenized in a mixture of Dimethyl sulfoxide/Acetone/Tween®80 and then diluted in water to the desired concentration. The young plants of gherkin are treated by spraying the active ingredient prepared as described above. Control plants are treated only with an aqueous solution of Acetone/Dimethyl sulfoxide/Tween® 80. After 24 hours, the plants are contaminated by spraying the leaves with an aqueous suspension of Botrytis cinerea spores. The contaminated gherkin plants are incubated for 4 to 5 days at 17° C. and at 90% relative humidity.

[2] = log P by HPLC on reversed-phase column (C 18), EEC Directive 79/831 Annex V.A8; type: physicochemical; settings: for logP: Table 1, 40° C.
Description: In table 1, the log P values were determined in accordance with EEC Directive 79/831 Annex V.A8 by HPLC (High Performance Liquid Chromatography) on a reversed-phase column (C 18), using the method described below: Temperature: 40° C.; Mobile phases: 0.1% aqueous formic acid and acetonitrile; linear gradient from 10% acetonitrile to 90% acetonitrile. Calibration was carried out using unbranched alkan-2-ones (comprising 3 to 16 carbon atoms) with known log P values (determination of the log P values by the retention times using linear interpolation between two successive alkanones). lambda-max-values were determined using UV-spectra from 200 nm to 400 nm and the peak values of the chromatographic signals.

Sphaerotheca fuliginea = experiment: In vivo preventive test on Sphaerotheca fuliginea (powdery mildew on cucurbits); settings: 500 ppm, gherkin plants, preventive spray, evaluated 15 days after inoculation
Description: as §1, with “F:” for “B:”, “on Sphaerotheca fuliginea (Powdery Mildew on Cucurbits)” for “Botrytis cinerea (Grey Mould)”, “Sphaerotheca fuliginea” for “Botrytis cinerea”, “spores.” for “spores. The contaminated gherkin plants are incubated for 4 to 5 days at 17° C. and at 90% relative humidity.”

Pyrenophora teres = experiment: In vivo preventive test on Pyrenophora teres (net blotch on barley); settings: 500 ppm, barley plants, preventive spray, evaluated 14 days after inoculation
Description: as §1, with “D:” for “B:”, “on Pyrenophora teres (Net Blotch on Barley)” for “Botrytis cinerea (Grey Mould)”, “barley” for “gherkin”, “Pyrenophora teres” for “Botrytis cinerea”, “spores.” for “spores. The contaminated gherkin plants are incubated for 4 to 5 days at 17° C. and at 90% relative humidity.”

Puccinia recondita = experiment: In vivo preventive test on Puccinia recondita (brown rust on wheat); settings: 500 ppm, wheat plants, preventive spray, evaluated 11 days after inoculation
Description: as §1, with “C:” for “B:”, “on Puccinia recondita (Brown Rust on Wheat)” for “Botrytis cinerea (Grey Mould)”, “wheat” for “gherkin”, “Puccinia recondita” for “Botrytis cinerea”, “spores.” for “spores. The contaminated gherkin plants are incubated for 4 to 5 days at 17° C. and at 90% relative humidity.”

Septoria tritici = experiment: In vivo preventive test on Septoria tritici (wheat); settings: 500 ppm, wheat plants, preventive spray, evaluated 24 days after inoculation
Description: as §1, with “E:” for “B:”, “on Septoria tritici (Wheat)” for “Botrytis cinerea (Grey Mould)”, “wheat” for “gherkin”, “Septoria tritici” for “Botrytis cinerea”, “72 hours at 18° C. and at 100% relative humidity and then for 21” for “4 to 5”, “20°” for “17°”

Uromyces appendiculatus = experiment: In vivo preventive test on Uromyces appendiculatus (bean rust); settings: Table G; 500 ppm, bean plants, preventive spray, evaluated 11 days after inoculation
Description: as §1, with “G:” for “B:”, “on Uromyces appendiculatus (Bean Rust)” for “Botrytis cinerea (Grey Mould)”, “bean” for “gherkin”, “Uromyces appendiculatus” for “Botrytis cinerea”, “spores.” for “spores. The contaminated gherkin plants are incubated for 4 to 5 days at 17° C. and at 90% relative humidity.”

[3] = HPLC, 0.1% aqueous formic acid and acetonitrile
[4] = Table B, 500 ppm, preventive spray, evaluated 4 to 5 days after inoculation
[5] = reversed-phase HPLC column (C 18), Table 2 (amines of formula IIa), HPLC, 0.1% aqueous formic acid and acetonitrile, read-out: logP
[6] = reversed-phase HPLC column (C 18), Table 3 (aldehydes of formula IV), HPLC, 0.1% aqueous formic acid and acetonitrile, read-out: logP

With `CC1CCc2cccc(C(C)N(C(=O)c3c(C(F)F)nn(C)c3F)C3CC3)c2C1` (stereo not shown) [50 from WO-2010/130767, N-cyclopropyl-3-(difluoromethyl)-5-fluoro-1-methyl-N-[1-(7-methyl-5,6,7,8-tetrahydronaphthalen-1-yl)ethyl]-1H-pyrazole-4-carboxamide] the Efficacy ([1]; dose 250 ppm) was 67% and the Efficacy ([1]; dose 500 ppm) was 67%.
`Cn1nc(C(F)F)c(C(=O)N(Cc2cccc3ccccc23)C2CC2)c1F` [CMP1, N-cyclopropyl-3-(difluoromethyl)-5-fluoro-1-methyl-N-(1-naphthylmethyl)-1H-pyrazole-4-carboxamide, reference compound] showed an Efficacy (Botrytis cinerea; Table B2, dose 100 ppm) of 10% and an Efficacy (Botrytis cinerea; Table B2, dose 500 ppm) of 70%.
Work on `Cc1nn(C)c(F)c1C(=O)N(Cc1cccc2c1CCCC2)C1CC1` [CMP2, N-cyclopropyl-5-fluoro-1,3-dimethyl-N-(5,6,7,8-tetrahydronaphthalen-1-ylmethyl)-1H-pyrazole-4-carboxamide, reference compound] yielded an Efficacy (Botrytis cinerea; Table B2, dose 100 ppm) of 0% and an Efficacy (Botrytis cinerea; Table B2, dose 500 ppm) of 35%.
`Cn1cc(C(=O)N(Cc2cccc3c2CCCC3)C2CC2)c(C(F)F)n1` [CMP3, N-cyclopropyl-3-(difluoromethyl)-1-methyl-N-(5,6,7,8-tetrahydronaphthalen-1-ylmethyl)-1H-pyrazole-4-carboxamide, reference compound] gave an Efficacy (Botrytis cinerea; Table B2, dose 100 ppm) of 0% and an Efficacy (Botrytis cinerea; Table B2, dose 500 ppm) of 0%.
Compound `Cc1nn(C)c(F)c1C(=O)N(C1CC1)C(C)c1cccc2c1CCCC2` (stereo not shown) [CMP4, N-cyclopropyl-5-fluoro-1,3-dimethyl-N-[1-(5,6,7,8-tetrahydronaphthalen-1-yl)ethyl]-1H-pyrazole-4-carboxamide] has an Efficacy ([1]; dose 250 ppm) of 29% and an Efficacy ([1]; dose 500 ppm) of 57%.
Compound `Cc1nn(C)c(F)c1C(=O)N(C1CC1)C(C)c1cccc2c1CCC(C)(C)C2` (stereo not shown) [CMP5, N-cyclopropyl-N-[1-(6,6-dimethyl-5,6,7,8-tetrahydronaphthalen-1-yl)ethyl]-5-fluoro-1,3-dimethyl-1H-pyrazole-4-carboxamide] has an Efficacy ([1]; dose 250 ppm) of 44% and an Efficacy ([1]; dose 500 ppm) of 56%.
In the case of `Cn1cc(C(=O)N(Cc2cccc3c2C2C=CC3C2)C2CC2)c(C(F)F)n1` (stereo not shown) [I.03], the logP [2, 3] is reported as 3.19, the Efficacy (Sphaerotheca fuliginea) is reported as 98% and the Efficacy (Pyrenophora teres) is reported as 88%.
With `Cn1nc(C(F)F)c(C(=O)N(Cc2cccc3c2C2C=CC3C2)C2CC2)c1Cl` (stereo not shown) [I.05] the logP [2, 3] was 3.70, the Efficacy (Sphaerotheca fuliginea) was 72% and the Efficacy (Puccinia recondita) was 94%. For the same compound, the Efficacy (Septoria tritici) was 81%.
Work on `Cn1nc(C(F)F)c(C(=O)N(Cc2cccc3c2C2CCC3C2=C(Cl)Cl)C2CC2)c1Cl` (stereo not shown) [I.06] yielded a logP [2, 3] of 4.66, an Efficacy (Sphaerotheca fuliginea) of 95% and an Efficacy (Pyrenophora teres) of 71%. For the same compound, the Efficacy (Septoria tritici) was 71%.
Compound `Cn1nc(C(F)F)c(C(=S)N(Cc2cccc3c2C2CCC3C2=C(Cl)Cl)C2CC2)c1Cl` (stereo not shown) [I.09] has a logP [2, 3] of 5.39, an Efficacy (Sphaerotheca fuliginea) of 98% and an Efficacy (Uromyces appendiculatus) of 78%.
`Cn1cc(C(=S)N(Cc2cccc3c2C2CCC3C2=C(Cl)Cl)C2CC2)c(C(F)F)n1` (stereo not shown) [I.10] gave an Efficacy (Botrytis cinerea; [4]) of 100%, a logP [2, 3] of 4.83 and an Efficacy (Sphaerotheca fuliginea) of 100%. For the same compound, the Efficacy (Puccinia recondita) was 88% and the Efficacy (Septoria tritici) was 100%.
In the case of `Cn1nc(C(F)F)c(C(=O)N(Cc2cccc3c2C2CCC3O2)C2CC2)c1F` (stereo not shown) [I.12], the Efficacy (Botrytis cinerea; [4]) is reported as 99%, the logP [2, 3] is reported as 2.55 and the Efficacy (Sphaerotheca fuliginea) is reported as 100%. The Efficacy (Puccinia recondita) was 89% and the Efficacy (Septoria tritici) was 100%.
Compound `Cn1nc(C(F)F)c(C(=O)N(Cc2cccc3c2C2C=CC3O2)C2CC2)c1Cl` (stereo not shown) [I.13] has a logP [2, 3] of 2.42.
In the case of `Cn1nc(C(F)F)c(C(=O)N(Cc2cccc3c2C2C=CC3O2)C2CC2)c1F` (stereo not shown) [I.14], the logP [2, 3] is reported as 2.31, the Efficacy (Sphaerotheca fuliginea) is reported as 94% and the Efficacy (Pyrenophora teres) is reported as 75%. For the same compound, the Efficacy (Septoria tritici) was 98%.
`Cn1cc(C(=O)N(Cc2cccc3c2C2C=CC3O2)C2CC2)c(C(F)F)n1` (stereo not shown) [I.15] gave a logP [2, 3] of 2.05 and an Efficacy (Sphaerotheca fuliginea) of 72%.
In the case of `Cc1cc(C(=O)N(Cc2cccc3c2C2C=CC3O2)C2CC2)c(C)o1` (stereo not shown) [I.16], the logP [2, 3] is reported as 2.82 and the Efficacy (Septoria tritici) is reported as 81%.
`Cn1cc(C(=O)N(Cc2cccc3c2C2C=CC3O2)C2CC2)c(C(F)(F)F)c1` (stereo not shown) [I.17] gave a logP [2, 3] of 2.70.
Work on `Cc1nc(C(F)F)c(C(=O)N(Cc2cccc3c2C2C=CC3O2)C2CC2)s1` (stereo not shown) [I.18] yielded a logP [2, 3] of 2.51.
For `Cn1nc(C(F)F)c(C(=S)N(Cc2cccc3c2C2C=CC3O2)C2CC2)c1F` (stereo not shown) [I.19], the logP [2, 3] was 3.04.
Work on `Cn1nc(C(F)F)c(C(=S)N(Cc2cccc3c2C2C=CC3O2)C2CC2)c1Cl` (stereo not shown) [I.20] yielded a logP [2, 3] of 3.17.
Compound `O=C(c1ccsc1Br)N(Cc1cccc2c1C1C=CC2O1)C1CC1` (stereo not shown) [I.21] has a logP [2, 3] of 2.96.
For `Cc1cc(C(=O)N(Cc2cccc3c2C2CCC3O2)C2CC2)c(C)o1` (stereo not shown) [I.22], the logP [2, 3] was 3.04.
Compound `c1cc(CNC2CC2)c2c(c1)C1CCC2C1` (stereo not shown) [IIa.1, N-(1,2,3,4-tetrahydro-1,4-methanonaphthalen-5-ylmethyl)cyclopropanamine] has a chromatographic logP [2, 5] of 1.31.
For `C1=CC2CC1c1cccc(CNC3CC3)c12` (stereo not shown) [IIa.2, N-(1,4-dihydro-1,4-methanonaphthalen-5-ylmethyl)cyclopropanamine], the chromatographic logP [2, 5] was 1.13.
Compound `ClC(Cl)=C1C2CCC1c1c(CNC3CC3)cccc12` (stereo not shown) [IIa.3, N-{[9-(dichloromethylene)-1,2,3,4-tetrahydro-1,4-methanonaphthalen-5-yl]methyl}-cyclopropanamine] has a chromatographic logP [2] of 1.95.
`c1cc(CNC2CC2)c2c(c1)C1CCC2O1` (stereo not shown) [IIa.4, N-(1,2,3,4-tetrahydro-1,4-epoxynaphthalen-5-ylmethyl)cyclopropanamine] gave a chromatographic logP [2, 5] of 0.45.
In the case of `C1=CC2OC1c1cccc(CNC3CC3)c12` (stereo not shown) [IIa.5, N-(1,4-dihydro-1,4-epoxynaphthalen-5-ylmethyl)cyclopropanamine], the chromatographic logP [2, 5] is reported as 0.13.
In the case of `O=Cc1cccc2c1C1CCC2C1` (stereo not shown) [IV.1, 1,2,3,4-tetrahydro-1,4-methanonaphthalene-5-carbaldehyde], the chromatographic logP [2, 6] is reported as 3.13.
For `O=Cc1cccc2c1C1C=CC2C1` (stereo not shown) [IV.2, 1,4-dihydro-1,4-methanonaphthalene-5-carbaldehyde], the chromatographic logP [2, 6] was 2.73.
`O=Cc1cccc2c1C1CCC2C1=C(Cl)Cl` (stereo not shown) [IV.3, 9-(dichloromethylene)-1,2,3,4-tetrahydro-1,4-methanonaphthalene-5-carbaldehyde] gave a chromatographic logP [2] of 4.09.
For `O=Cc1cccc2c1C1CCC2O1` (stereo not shown) [IV.4, 1,2,3,4-tetrahydro-1,4-epoxynaphthalene-5-carbaldehyde], the chromatographic logP [2, 6] was 1.66.
`O=Cc1cccc2c1C1C=CC2O1` (stereo not shown) [IV.5, 1,4-dihydro-1,4-epoxynaphthalene-5-carbaldehyde] gave a chromatographic logP [2, 6] of 1.5.
